Experimental data as given in patent US11286266B2, “1-imidazothiadiazolo-2H-pyrrol-5-one derivatives” (UCB Biopharma SRL, priority 2018, dated 2022).
Where “and” joins values, the source holds several entries; their conditions need not be identical. Identical values can stand only once.

Biological target: T1, Human SV2A (Homo sapiens, UniProt Q7L0J3)
T1 construct: expressed in transfected cells; host or cells: human embryonic kidney (HEK) cells; membrane preparations
Test: Binding assay to SV2A (radioligand competition, HEK membranes)
Settings: human SV2A in HEK membranes, 60 min at 37° C., pIC50 corrected to pKi by Cheng and Prusoff
Description: Human SV2A and SV2C proteins were expressed in human embryonic kidney (HEK) cells. HEK SV2A and HEK SV2C membrane preparations were prepared as described in Gillard et al (Eur. J. Pharmacol. 2006, 536, 102-108). To measure affinity of non-labelled compounds, competition experiments were performed as follow: Membranes expressing SV2 proteins (5 to 15 μg proteins per assay) were incubated for 60 min at 37° C. with either [^3H]-2-[4-(3-azidophenyl)-2-oxo-1-pyrrolidinyl]butanamide (5 nM) and/or [^3H]-4R-(2-chloro-2,2-difluoroethyl)-1-{[2-(methoxymethyl)-6-(trifluoromethyl)imidazo[2,1-b][1,3,4]thiadiazol-5-yl]methyl}pyrrolidin-2-one (25 nM) in 0.2 ml of a 50 mM Tris-HCl buffer (pH 7.4) containing 2 mM MgCl2, 0.1% dimethylsulfoxide and ten increasing concentrations of non-labelled test compound (0.1 nM to 10 μM). At the end of the incubation period, the membrane-bound radioligand was recovered by rapid filtration through GF/C glass fiber filters pre-soaked in 0.1% polyethyleneimine. Membranes were washed with at least 4 times the assay volume of ice-cold 50 mM Tris HCl buffer (pH 7.4). The filters were dried and the radioactivity determined by liquid scintillation. […] Measured affinity plC50 values were corrected to pKi according to Cheng and Prusoff (Biochem. Pharmacol. 1973, 22(23), 3099-3108).

T1 sequence (Q7L0J3 whole entry): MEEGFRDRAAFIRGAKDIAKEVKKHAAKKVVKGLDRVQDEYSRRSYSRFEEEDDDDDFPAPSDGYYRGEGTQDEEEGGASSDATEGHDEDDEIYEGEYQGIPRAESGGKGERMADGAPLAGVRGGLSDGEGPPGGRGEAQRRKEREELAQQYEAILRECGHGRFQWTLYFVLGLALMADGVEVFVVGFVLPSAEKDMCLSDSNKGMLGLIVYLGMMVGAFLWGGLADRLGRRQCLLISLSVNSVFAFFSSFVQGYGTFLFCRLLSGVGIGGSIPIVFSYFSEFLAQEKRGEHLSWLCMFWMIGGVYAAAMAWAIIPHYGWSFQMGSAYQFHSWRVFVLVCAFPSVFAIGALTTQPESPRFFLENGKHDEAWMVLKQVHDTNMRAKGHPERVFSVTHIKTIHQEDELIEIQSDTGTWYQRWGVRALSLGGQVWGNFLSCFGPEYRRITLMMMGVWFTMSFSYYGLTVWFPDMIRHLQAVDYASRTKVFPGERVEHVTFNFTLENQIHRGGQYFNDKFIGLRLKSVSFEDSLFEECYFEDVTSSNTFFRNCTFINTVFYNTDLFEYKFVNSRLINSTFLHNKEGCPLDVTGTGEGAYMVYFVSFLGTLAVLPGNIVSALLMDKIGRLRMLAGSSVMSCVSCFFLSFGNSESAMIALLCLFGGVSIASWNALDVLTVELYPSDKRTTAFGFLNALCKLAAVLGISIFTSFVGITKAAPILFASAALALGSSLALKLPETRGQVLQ

Ki	SMILES
3.16 to 10 nM	COCc1nn2c(CN3CC(CC(C)(F)F)=CC3=O)c(C(F)(F)F)nc2s1 [Example 15, 3-(2,2-difluoropropyl)-1-[[2-(methoxymethyl)-6-(trifluoromethyl)imidazo[2,1-b][1,3,4]thiadiazol-5-yl]methyl]-2H-pyrrol-5-one]
3.16 to 10 nM	CCCC1=CC(=O)N(Cc2c(C(F)F)nc3sc(COC)nn23)C1 [Example 8, 1-[[6-(difluoromethyl)-2-(methoxymethyl)imidazo[2,1-b][1,3,4]thiadiazol-5-yl]methyl]-3-propyl-2H-pyrrol-5-one]
3.16 to 10 nM	COCc1nn2c(CN3CC(CCC(F)(F)F)=CC3=O)c(Cl)nc2s1 [Example 7, 1-[[6-chloro-2-(methoxymethyl)imidazo[2,1-b][1,3,4]thiadiazol-5-yl]methyl]-3-(3,3,3-trifluoropropyl)-2H-pyrrol-5-one]
3.16 to 10 nM	COCc1nn2c(CN3CC(CCC(F)(F)F)=CC3=O)c(C)nc2s1 [Example 13, 1-[[2-(methoxymethyl)-6-methyl-imidazo[2,1-b][1,3,4]thiadiazol-5-yl]methyl]-3-(3,3,3-trifluoropropyl)-2H-pyrrol-5-one]
31.6 to 316 nM	COCc1nn2c(CN3CC(C4CC4(F)F)=CC3=O)c(C)nc2s1 (single isomer, unassigned) [Example 18-B, 1-[[2-(methoxymethyl)-6-methyl-imidazo[2,1-b][1,3,4]thiadiazol-5-yl]methyl]-3-[2,2-difluorocyclopropyl]-2H-pyrrol-5-one]
31.6 to 316 nM	O=C1C=C(CCC(F)(F)F)CN1Cc1c(C(F)F)nc2sc(CO)nn12 [Example 22, 1-[[6-(difluoromethyl)-2-(hydroxymethyl)imidazo[2,1-b][1,3,4]thiadiazol-5-yl]methyl]-3-(3,3,3-trifluoropropyl)-2H-pyrrol-5-one]
31.6 to 316 nM	Cc1nc2sc(CO)nn2c1CN1CC(CCC(F)(F)F)=CC1=O [Example 21, 1-[[2-(hydroxymethyl)-6-methyl-imidazo[2,1-b][1,3,4]thiadiazol-5-yl]methyl]-3-(3,3,3-trifluoropropyl)-2H-pyrrol-5-one]
3.16 to 10 nM	COCc1nn2c(CN3CC(CCC(F)(F)F)=CC3=O)c(C(F)(F)F)nc2s1 [Example 3, 1-[[2-(methoxymethyl)-6-(trifluoromethyl)imidazo[2,1-b][1,3,4]thiadiazol-5-yl]methyl]-3-(3,3,3-trifluoropropyl)-2H-pyrrol-5-one]
3.16 to 10 nM	CCCC1=CC(=O)N(Cc2c(C)nc3sc(COC)nn23)C1 [Example 4, 1-[[2-(methoxymethyl)-6-methyl-imidazo[2,1-b][1,3,4]thiadiazol-5-yl]methyl]-3-propyl-2H-pyrrol-5-one]
3.16 to 10 nM	CCCC1=CC(=O)N(Cc2c(C(F)(F)F)nc3sc(COC)nn23)C1 [Example 1, 1-[[2-(methoxymethyl)-6-(trifluoromethyl)imidazo[2,1-b][1,3,4]thiadiazol-5-yl]methyl]-3-propyl-2H-pyrrol-5-one]
10 to 31.6 nM	COCc1nn2c(CN3CC(CC(F)(F)F)=CC3=O)c(C(F)(F)F)nc2s1 [Example 2, 1-[[2-(methoxymethyl)-6-(trifluoromethyl)imidazo[2,1-b][1,3,4]thiadiazol-5-yl]methyl]-3-(2,2,2-trifluoroethyl)-2H-pyrrol-5-one]
3.16 to 10 nM	COCc1nn2c(CN3CC(CC(C)(F)F)=CC3=O)c(C(F)F)nc2s1 [Example 16, 1-[[6-(difluoromethyl)-2-(methoxymethyl)imidazo[2,1-b][1,3,4]thiadiazol-5-yl]methyl]-3-(2,2-difluoropropyl)-2H-pyrrol-5-one]
3.16 to 10 nM	COCc1nn2c(CN3CC(CC(F)(F)F)=CC3=O)c(C(F)F)nc2s1 [Example 10, 1-[[6-(difluoromethyl)-2-(methoxymethyl)imidazo[2,1-b][1,3,4]thiadiazol-5-yl]methyl]-3-(2,2,2-trifluoroethyl)-2H-pyrrol-5-one]
31.6 to 316 nM	O=C1C=C(CC(F)(F)F)CN1Cc1c(C(F)F)nc2sc(CO)nn12 [Example 23, 1-[[6-(difluoromethyl)-2-(hydroxymethyl)imidazo[2,1-b][1,3,4]thiadiazol-5-yl]methyl]-3-(2,2,2-trifluoroethyl)-2H-pyrrol-5-one]
10 to 31.6 nM	COCc1nn2c(CN3CC(CC(F)(F)F)=CC3=O)c(Cl)nc2s1 [Example 5, 1-[[6-chloro-2-(methoxymethyl)imidazo[2,1-b][1,3,4]thiadiazol-5-yl]methyl]-3-(2,2,2-trifluoroethyl)-2H-pyrrol-5-one]
3.16 to 10 nM	COCc1nn2c(CN3CC(CC(F)(F)Cl)=CC3=O)c(C(F)(F)F)nc2s1 [Example 12, 3-(2-chloro-2,2-difluoro-ethyl)-1-[[2-(methoxymethyl)-6-(trifluoromethyl)imidazo[2,1-b][1,3,4]thiadiazol-5-yl]methyl]-2H-pyrrol-5-one]
3.16 to 10 nM	CCCC1=CC(=O)N(Cc2c(Cl)nc3sc(COC)nn23)C1 [Example 6, 1-[[6-chloro-2-(methoxymethyl)imidazo[2,1-b][1,3,4]thiadiazol-5-yl]methyl]-3-propyl-2H-pyrrol-5-one]
10 to 31.6 nM	COCc1nn2c(CN3CC(CC(C)(F)F)=CC3=O)c(C)nc2s1 [Example 20, 3-(2,2-difluoropropyl)-1-[[2-(methoxymethyl)-6-methyl-imidazo[2,1-b][1,3,4]thiadiazol-5-yl]methyl]-2H-pyrrol-5-one]
3.16 to 10 nM	COCc1nn2c(CN3CC(C4CC4(F)F)=CC3=O)c(C(F)F)nc2s1 (single isomer, unassigned) [Example 19-A, 1-[[6-(difluoromethyl)-2-(methoxymethyl)imidazo[2,1-b][1,3,4]thiadiazol-5-yl]methyl]-3-[2,2-difluorocyclopropyl]-2H-pyrrol-5-one]
10 to 31.6 nM	COCc1nn2c(CN3CC(C4CC4(F)F)=CC3=O)c(C)nc2s1 (single isomer, unassigned) [Example 18-A, 1-[[2-(methoxymethyl)-6-methyl-imidazo[2,1-b][1,3,4]thiadiazol-5-yl]methyl]-3-[2,2-difluorocyclopropyl]-2H-pyrrol-5-one]
10 to 31.6 nM and 3.16 to 10 nM	COCc1nn2c(CN3CC(CC(F)(F)F)=CC3=O)c(C3(F)CC3)nc2s1 [Example 11, 1-[[6-(1-fluorocyclopropyl)-2-(methoxymethyl)imidazo[2,1-b][1,3,4]thiadiazol-5-yl]methyl]-3-(2,2,2-trifluoroethyl)-2H-pyrrol-5-one]
3.16 to 10 nM	COCc1nn2c(CN3CC(C4CC4(F)F)=CC3=O)c(C(F)(F)F)nc2s1 (single isomer, unassigned) [Example 17-A, 3-(2,2-difluorocyclopropyl)-1-[[2-(methoxymethyl)-6-(trifluoromethyl)imidazo[2,1-b][1,3,4]thiadiazol-5-yl]methyl]-2H-pyrrol-5-one]
3.16 to 10 nM	COCc1nn2c(CN3CC(CC(F)(F)F)=CC3=O)c(C)nc2s1 [Example 9, 1-[[2-(methoxymethyl)-6-methyl-imidazo[2,1-b][1,3,4]thiadiazol-5-yl]methyl]-3-(2,2,2-trifluoroethyl)-2H-pyrrol-5-one]
3.16 to 10 nM	COCc1nn2c(CN3CC(CCC(F)(F)F)=CC3=O)c(C(F)F)nc2s1 [Example 14, 1-[[6-(difluoromethyl)-2-(methoxymethyl)imidazo[2,1-b][1,3,4]thiadiazol-5-yl]methyl]-3-(3,3,3-trifluoropropyl)-2H-pyrrol-5-one]
